Results published in paper PMC4171207 (Antiviral research, 2014).
Where a name gives a salt, the structure may show the parent alone. Read-outs that look alike come from different tables or passages of the source. Marks after values point to notes of the source that are not given here.

What was measured:
[1] = test system: 5-FU catabolism; experiment: LC-MS/MS analysis of 5-fluorouracil metabolism in mice; assay type: in vivo, BALB/c mice; conditions: for 5-FU concentration in plasma: 5-FU 30 mg/kg i.v. plus test drug 10 mg/kg p.o.
[2] = test system: VZV-BAC-Luc; experiment: microbe, parasite or virus in culture; assay type: cell-based, varicella-zoster virus; conditions: for SI (CC50/EC50): selectivity index in HFFs
[3] = test system: human foreskin fibroblasts (HFFs); experiment: Neutral red cytotoxicity assay in HFFs; assay type: cell-based
[4] = test system: VZV-BAC-Luc; experiment: VZV-BAC-Luc in skin organ culture; assay type: cell-based, varicella-zoster virus; conditions: read-out: EC50 in SOC; 6 dpi, bioluminescence imaging, mean ± SD
[5] = test system: VZV-BAC-Luc; experiment: VZV yield in HFFs by quantitative real-time PCR; assay type: cell-based, varicella-zoster virus
[6] = test system: VZV-BAC-Luc; experiment: Drug synergy assay; assay type: cell-based, varicella-zoster virus; conditions: HFFs, 48 h, VZV yield by bioluminescence
[7] = test system: VZV-BAC-Luc; assay type: in vivo, varicella-zoster virus; conditions: SCID-Hu mice
[8] = for Ratio to Plasma: 2 h post final treatment

## O=c1[nH]cc(F)c(=O)[nH]1 [5-FU, 5-fluorouracil]
[1]; 30 min, 5-FU alone 30 mg/kg i.v.
  5-FU in plasma (average AUC): 1246 nM
[1]; 60 min, 5-FU alone 30 mg/kg i.v.
  5-FU in plasma: undetectable

## O=c1ccn(C2OC(CO)OC2/C=C/Br)c(=O)[nH]1 [L-BHDU (1), β-L-1-[5-(E-2-Bromovinyl)-2-(hydroxymethyl)-1,3-(dioxolan-4-yl)] uracil]
[2]; read-out: EC50 in HFFs, 48 hpi, bioluminescence imaging, mean ± SD
  EC50: 220 ± 10 nM
[2]
  SI (CC50/EC50): >909
[2]; listed as L-BHDU
  SI (CC50/EC50): > 909
[3]; 200 μM, 3 days
  cytotoxicity at 200 μM: noncytotoxic
[3]; 72 h, neutral red assay
  CC50: > 200000 nM
[4]
  EC50: 240 ± 20 nM
[5]
  VZV genome copy number: reduced VZV genome copy number
[5]; read-out: EC50 determined by qPCR, VZV genomes
  EC50: ~70 nM
[6]
  interaction with ACV, BVdU and PFA: antagonized the activity of ACV, BVdU and foscarnet
[7]; 8 mg/kg/day oral gavage
  Ave. VZV Growth Rate (± SD): 0.33 (0.03) Log10(photons/s/day)
[7]; 8 mg/kg/day oral gavage, listed as L-BHDU
  Ave. VZV Growth Rate (± SD): 0.33 ± 0.03 Log10(photons/s/day)
[7]; 15 mg/kg/day oral gavage
  Ave. VZV Growth Rate (± SD): 0.25 (0.09) ^* Log10(photons/s/day)
[7]; 15 mg/kg/day oral gavage, listed as L-BHDU
  Ave. VZV Growth Rate (± SD): 0.25 ± 0.9 Log10(photons/s/day)
[7]; 150 mg/kg/day oral gavage
  Ave. VZV Growth Rate (± SD): 0.22 (0.06) ^* Log10(photons/s/day)
[7]; 150 mg/kg/day oral gavage, listed as L-BHDU
  Ave. VZV Growth Rate (± SD): 0.22 ± 0.6 Log10(photons/s/day)
8 mg/kg/day
  Mortality: 1/5
15 mg/kg/day
  Mortality: 0/5
150 mg/kg/day
  Mortality: 0/5
mouse, in vivo
  overt toxicity in vivo: No overt toxicity
  weight loss: moderate weight loss
[8]; 8 mg/kg/day
  concentration in human skin implants relative to EC50: 10 fold
[8]; Brain, 8 mg/kg/day
  Ratio to Plasma: 0.4 (0.3)
[8]; Brain, 150 mg/kg/day
  Ratio to Plasma: 0.1 (0.03)
[8]; Heart, 8 mg/kg/day
  Ratio to Plasma: 2.9 (2.5)
[8]; Heart, 150 mg/kg/day
  Ratio to Plasma: 1.0 (0.2)
[8]; Kidney, 8 mg/kg/day
  Ratio to Plasma: 5.1 (3.1)
[8]; Kidney, 150 mg/kg/day
  Ratio to Plasma: 2.1 (0.4)
[8]; Liver, 8 mg/kg/day
  Ratio to Plasma: 4.5 (1.1)
[8]; Liver, 150 mg/kg/day
  Ratio to Plasma: 1.5 (0.3)
[8]; Lung, 8 mg/kg/day
  Ratio to Plasma: 11.2 (5.7)
[8]; Lung, 150 mg/kg/day
  Ratio to Plasma: 2.3 (0.5)
[8]; Plasma, 8 mg/kg/day
  Ratio to Plasma: 1
[8]; Plasma, 150 mg/kg/day
  Ratio to Plasma: 1
[8]; Skin (Human) xenograft, 8 mg/kg/day
  Ratio to Plasma: 3.1 (2.6)
[8]; Skin (Mouse), 8 mg/kg/day
  Ratio to Plasma: 3.0 (2.5)
[8]; Skin (Mouse), 150 mg/kg/day
  Ratio to Plasma: 0.9 (0.2)
[8]; Spleen, 8 mg/kg/day
  Ratio to Plasma: 2.1 (1.3)
[8]; Spleen, 150 mg/kg/day
  Ratio to Plasma: 1.4 (0.2)

## O=c1[nH]c(=O)n([C@H]2C[C@H](O)[C@@H](CO)O2)cc1/C=C/Br [BVdU, (E)-5-(2-Bromovinyl)-2′-deoxyuridine]
[1]; 30 min
  5-FU concentration in plasma: 945 nM
[1]; 60 min
  5-FU concentration in plasma: 685 nM
[1]; mice, 10 mg/kg p.o. with 5-FU 30 mg/kg i.v.
  effect on 5-FU catabolism: interfered with 5-FU catabolism

## CC(C)[C@H](N)C(=O)OCCOCn1cnc2c(=O)[nH]c(N)nc21 [VACV, Valacyclovir HCl, reference compound]
[7]; 120 mg/kg/day oral gavage
  Ave. VZV Growth Rate (± SD): 0.40 (0.09) Log10(photons/s/day)
[7]; 120 mg/kg/day
  effect on VZV replication: had no effect on VZV replication
[7]; 200 mg/kg/day oral gavage
  Ave. VZV Growth Rate (± SD): 0.27 (0.07) ^* Log10(photons/s/day)
[7]; 200 mg/kg/day oral gavage, listed as Valacyclovir
  Ave. VZV Growth Rate (± SD): 0.27 ± 0.07 Log10(photons/s/day)
120 mg/kg/day
  ABWD (±SD), Average Body Weight Difference from Days 0–7: −2.9 (1.2) ^* grams
  Mortality: 0/11
200 mg/kg/day
  ABWD (±SD), Average Body Weight Difference from Days 0–7: −3.6 (1.5) ^* grams
  Mortality: 0/10

## O=C(O)P(=O)(O)O [PFA, sodium phosphonoformate tribasic hexahydrate, reference compound]
[2]; Human alphaherpesvirus 3, read-out: EC50 in HFFs
  EC50: 40000 nM

## Nc1nc2c(ncn2COCCO)c(=O)[nH]1 [ACV, Acyclovir, reference compound]
120 mg/kg/day
  Mortality: 0/11
